Experimental data from patent publication EP4603105A1, “PHARMACEUTICAL COMPOSITION CONTAINING CYCLIC COMPOUND HAVING SELECTIVE KRAS INHIBITORY EFFECT AGAINST HRAS AND NRAS” (CHUGAI SEIYAKU KABUSHIKI KAISHA, priority 2022, dated 2024).
Like-named read-outs stand apart in the source and are kept apart here.

Key:
[1] = molecular target: GDP-bound KRAS wild-type protein (Homo sapiens, UniProt P01116); assay: Binding to KRAS by surface plasmon resonance (SPR), dissociation constant KD
How it was run: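 Biotinylated GDP-bound RAS was captured at about 100–300 RU. Running buffer: HBS pH 7.4, 10 mM MgCl2, 10 µM GDP, 1 mM DTT, 0.01% Tween 20, 4% DMSO.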

[2] = molecular target: GDP-bound NRAS wild-type protein (Homo sapiens, UniProt P01111); assay: Binding to NRAS by surface plasmon resonance (SPR), KD and KD ratio to KRAS
GDP-bound NRAS wild-type protein, sequence (P01111 whole entry): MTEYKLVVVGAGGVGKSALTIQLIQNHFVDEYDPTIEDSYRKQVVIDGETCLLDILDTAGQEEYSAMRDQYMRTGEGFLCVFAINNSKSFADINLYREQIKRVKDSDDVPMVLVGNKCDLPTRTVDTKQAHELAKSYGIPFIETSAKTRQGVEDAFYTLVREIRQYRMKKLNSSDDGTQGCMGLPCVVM
How it was run: (§1)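 Captured GDP-RAS (~100–300 RU) was exposed to increasing compound concentrations, 75 s per step, in running buffer with 10 µM GDP, 10 mM MgCl2 and 4% DMSO at pH 7.4.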

HRAS wild-type protein = HRAS wild-type protein (Homo sapiens, UniProt P01112); assay: Binding to HRAS by surface plasmon resonance (SPR), KD and KD ratio to KRAS
HRAS wild-type protein, sequence (P01112 whole entry): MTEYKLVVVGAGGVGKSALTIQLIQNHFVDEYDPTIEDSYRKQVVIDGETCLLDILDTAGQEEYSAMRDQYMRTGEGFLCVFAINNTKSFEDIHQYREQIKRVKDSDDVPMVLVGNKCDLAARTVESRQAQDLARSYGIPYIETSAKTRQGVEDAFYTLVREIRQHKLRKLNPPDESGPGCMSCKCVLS
How it was run: as §1

[3] = test system: human lung cancer strain NCI-H441; assay: NCI-H441 cell proliferation inhibitory activity (CellTiter-Glo, 4 days); assay type: cell-based; conditions: read-out: NCl-H441 IC50
How it was run: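 Step one: dispense the test compound in serial DMSO dilutions. Step three: add the reagent and measure […].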

[4] = ratio of KD for GDP-bound NRAS wild-type protein to KD for KRAS
[5] = ratio of KD for HRAS wild-type protein to KD for KRAS
[6] = Single Cycle Kinetics, 1:1 binding model
[7] = ratio of KD with respect to GDP-bound NRAS wild-type protein to KD with respect to KRAS
[8] = ratio of KD with respect to HRAS wild-type protein to KD with respect to KRAS
[9] = 50% proliferation inhibitory concentration, four days

GDP-bound KRAS wild-type protein, sequence (P01116 1-188 isoform P01116-2): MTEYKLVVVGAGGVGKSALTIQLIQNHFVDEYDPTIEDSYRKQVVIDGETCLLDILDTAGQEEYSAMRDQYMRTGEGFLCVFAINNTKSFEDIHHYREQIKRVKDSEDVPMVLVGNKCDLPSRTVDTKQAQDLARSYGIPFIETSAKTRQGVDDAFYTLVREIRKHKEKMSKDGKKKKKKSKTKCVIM

SMILES | Kd ([1]; 1:1 binding model) [nM] | NRAS /KRAS [2, 4] | HRAS /KRAS (HRAS wild-type protein; [5]) | IC50 ([3]; NCI-H441 cells, 4 days) [nM] | Kd [1, 6] [nM] | NRAS /KRAS [2, 7] | HRAS /KRAS (HRAS wild-type protein; [8]) | IC50 [3, 9] [nM] | Kd ([1]; Single Cycle Kinetics) [nM]
CCCOC[C@H]1C(=O)N[C@@H]([C@@H](C)CC)C(=O)N2CCC[C@H]2C(=O)N(C)[C@H]2C/C=C\CCN(C2=O)[C@@H](Cc2ccc(C)cc2)C(=O)N(C)CC(=O)N[C@@H](CCc2ccc(C(F)(F)F)c(OC)c2)C(=O)N2C[C@@H](C)C[C@H]2C(=O)N(C)C2(CCC2)C(=O)N(C)[C@@H](C2CCCC2)C(=O)N(C)[C@H](C(=O)N(C)C)CC(=O)N1C [PP2369] | 0.062 | A (a compound having 10 or more and less than 20 is denoted as A) | B (a compound having 3 or more and less than 10 is denoted as B) | 4.5 | – | – | – | – | –
CCO[C@@H]1C[C@H]2C(=O)NC3(CCC3)C(=O)N(C)[C@@H](C3CCCC3)C(=O)N(C)[C@H](C(=O)N(C)C)CC(=O)N(C)[C@@H](Cc3cccs3)C(=O)N[C@@H]([C@@H](C)CC)C(=O)N(C)CC(=O)N(C)[C@H]3CCCCCN(C3=O)[C@@H](Cc3ccc(C(F)(F)F)cc3)C(=O)N(C)CC(=O)N[C@@H](CCc3cc(F)c(C(F)(F)F)c(F)c3)C(=O)N2C1 [PP1169] | – | – | – | – | 0.32 | B (a compound having 3 or more and less than 10 is denoted as B) | B (a compound having 3 or more and less than 10 is denoted as B) | 74 | –
CCO[C@@H]1C[C@H]2C(=O)OC3(CCC3)C(=O)N(C)[C@@H](C3CCCC3)C(=O)N(C)[C@H](C(=O)N(C)C)CC(=O)N(C)[C@@H]([C@H](C)OC)C(=O)N[C@@H]([C@@H](C)CC)C(=O)N(C)CC(=O)N(C)[C@H]3C/C=C\CCN(C3=O)[C@@H](Cc3ccc(C(F)(F)F)cc3)C(=O)N(C)CC(=O)N[C@@H](CCc3ccc(C(F)(F)F)c(OC)c3)C(=O)N2C1 [PP3379] | – | A (a compound having 10 or more and less than 20 is denoted as A) | B (a compound having 3 or more and less than 10 is denoted as B) | 9.5 | – | – | – | – | 0.24
CCC[C@H]1C(=O)N[C@@H]([C@@H](C)CC)C(=O)N(C)CC(=O)N(C)[C@H]2C/C=C\CCN(C2=O)[C@@H](CC2CCCCC2)C(=O)N(C)CC(=O)N[C@@H](CCc2cc(F)c(C(F)(F)F)c(F)c2)C(=O)N2C[C@H](OCC)C[C@H]2C(=O)NC2(CCC2)C(=O)N(C)[C@@H](C2CCCC2)C(=O)N(C)[C@H](C(=O)N(C)C)CC(=O)N1C [PP1464] | – | – | – | – | 0.15 | A (a compound having 10 or more and less than 20 is denoted as A) | A (a compound having 10 or more and less than 20 is denoted as A) | 32.3 | –
CCO[C@@H]1C[C@H]2C(=O)NC3(CCC3)C(=O)N(C)[C@@H](C3CCCC3)C(=O)N(C)[C@H](C(=O)N3CCCC3)CC(=O)N(C)[C@@H](CC3CCC3)C(=O)N[C@@H]([C@@H](C)CC)C(=O)N(C)CC(=O)N(C)[C@H]3C/C=C\CCN(C3=O)[C@@H](Cc3ccc(C)cc3)C(=O)N(C)CC(=O)N[C@@H](CCc3cc(F)c(C(F)(F)F)c(F)c3)C(=O)N2C1 [PP1425] | – | – | – | – | 0.24 | A (a compound having 10 or more and less than 20 is denoted as A) | B (a compound having 3 or more and less than 10 is denoted as B) | 20.2 | –
CCO[C@@H]1C[C@H]2C(=O)OC3(CCC3)C(=O)N(C)[C@@H](C3CCCC3)C(=O)N(C)[C@H](C(=O)N(C)C)CC(=O)N(C)[C@@H]([C@H](C)OC)C(=O)N[C@@H]([C@@H](C)CC)C(=O)N(C3CC3)CC(=O)N(C)[C@H]3C/C=C\CCN(C3=O)[C@@H](Cc3ccc(C)cc3)C(=O)N(C)CC(=O)N[C@@H](CCc3ccc(C(F)(F)F)c(OC)c3)C(=O)N2C1 [PP3396] | – | A (a compound having 10 or more and less than 20 is denoted as A) | B (a compound having 3 or more and less than 10 is denoted as B) | 12.9 | – | – | – | – | 1.4
CCCCCC[C@H]1C(=O)N[C@@H]([C@@H](C)CC)C(=O)N(C)CC(=O)N(C)[C@H]2C/C=C\CCN(C2=O)[C@@H](Cc2ccc(C(F)(F)F)cc2)C(=O)N(C)CC(=O)N[C@@H](CCc2ccc(C(F)(F)F)c(OC)c2)C(=O)N2C[C@H](OCC)C[C@H]2C(=O)NC2(CCC2)C(=O)N(C)[C@@H](C2CCCC2)C(=O)N(C)[C@H](C(=O)N(C)C)CC(=O)N1C [PP1246] | – | – | – | – | 0.081 | A (a compound having 10 or more and less than 20 is denoted as A) | A (a compound having 10 or more and less than 20 is denoted as A) | 9 | –
CCCO[C@H](C)[C@@H]1NC(=O)[C@H](CC(C)C)N(C)C(=O)C[C@@H](C(=O)N(C)CC)N(C)C(=O)[C@H](C2CCCC2)N(C)C(=O)C2(CC(C)(C)C2)NC(=O)[C@@H]2C[C@H](C)CN2C(=O)[C@H](CCc2ccc(C(F)(F)F)c(OC)c2)NC(=O)CN(C)C(=O)[C@H](Cc2ccc(C)cc2)N2CC/C=C\C[C@@H](C2=O)N(C)C(=O)CN(C)C1=O [PP2416] | 0.29 | A (a compound having 10 or more and less than 20 is denoted as A) | B (a compound having 3 or more and less than 10 is denoted as B) | 33.1 | – | – | – | – | –
CCCOC[C@H]1C(=O)N[C@@H]([C@@H](C)CC)C(=O)N(C)CC(=O)N(C)[C@H]2C/C=C\CCN(C2=O)[C@@H](Cc2ccc(C)cc2)C(=O)N(C)CC(=O)N[C@@H](CCc2ccc(C(F)(F)F)c(OC)c2)C(=O)N2C[C@@H](C)C[C@H]2C(=O)NC2(CC(C)(C)C2)C(=O)N(C)[C@@H](C2CCCC2)C(=O)N(C)[C@H](C(=O)N(C)CC)CC(=O)N1C [PP2461] | 0.15 | A (a compound having 10 or more and less than 20 is denoted as A) | A (a compound having 10 or more and less than 20 is denoted as A) | 10.6 | – | – | – | – | –
CCC[C@H]1C(=O)N[C@@H]([C@@H](C)CC)C(=O)N(C)CC(=O)N(C)[C@H]2C/C=C\CCN(C2=O)[C@@H](Cc2ccc(C(F)(F)F)cc2)C(=O)N(C)CC(=O)N[C@@H](CCc2ccc(C(F)(F)F)c(Cl)c2)C(=O)N2CC3(CC3)C[C@H]2C(=O)N(C)C2(CCC2)C(=O)N(C)[C@@H](C(CC)CC)C(=O)N(C)[C@H](C(=O)N(C)C)CC(=O)N1C [PP3297] | – | A (a compound having 10 or more and less than 20 is denoted as A) | B (a compound having 3 or more and less than 10 is denoted as B) | 10.2 | – | – | – | – | 0.48
CCC[C@H]1C(=O)N[C@@H]([C@@H](C)CC)C(=O)N(C2CC2)CC(=O)N(C)[C@H]2C/C=C\CCN(C2=O)[C@@H](Cc2ccc(C(F)F)cc2)C(=O)N(C)CC(=O)N[C@@H](CCc2cc(F)c(C(F)(F)F)c(F)c2)C(=O)N2C[C@H](OC(C)C)C[C@H]2C(=O)NC2(CC(C)(C)C2)C(=O)N(C)[C@@H](C(CC)CC)C(=O)N(C)[C@H](C(=O)N(C)C)CC(=O)N1C [PP2529] | 0.77 | AA (a compound having 20 or more is denoted as AA) | A (a compound having 10 or more and less than 20 is denoted as A) | 64 | – | – | – | – | –
C#CC[C@H]1C(=O)N[C@@H]([C@@H](C)CC)C(=O)N2CCCCC[C@H]2C(=O)N(C)[C@H]2C/C=C\CCN(C2=O)[C@@H](Cc2ccc(C)cc2)C(=O)N(C)CC(=O)N[C@@H](CCc2ccc(C(F)(F)F)c(OC)c2)C(=O)N2C[C@H](OCC)C[C@H]2C(=O)N(C)C2(CCC2)C(=O)N(C)[C@@H](C2CCCC2)C(=O)N(C)[C@H](C(=O)N(C)C)CC(=O)N1C [PP3267] | – | A (a compound having 10 or more and less than 20 is denoted as A) | B (a compound having 3 or more and less than 10 is denoted as B) | 196 | – | – | – | – | 5
CCO[C@@H]1C[C@H]2C(=O)NC3(CCC3)C(=O)N(C)[C@@H](C3CCCC3)C(=O)N(C)[C@H](C(=O)N3CCCC3)CC(=O)N(C)[C@@H](CC3CCCC3)C(=O)N[C@@H]([C@@H](C)CC)C(=O)N(C)CC(=O)N(C)[C@H]3C/C=C\CCN(C3=O)[C@@H](Cc3ccc(F)cc3)C(=O)N(C)CC(=O)N[C@@H](CCc3ccc4sccc4c3)C(=O)N2C1 [PP1391] | – | – | – | – | 1.6 | A (a compound having 10 or more and less than 20 is denoted as A) | A (a compound having 10 or more and less than 20 is denoted as A) | 271 | –
CCCC[C@H]1C(=O)N[C@@H]([C@@H](C)CC)C(=O)N(C)CC(=O)N(C)[C@H]2C/C=C\CCN(C2=O)[C@@H](Cc2ccc(C)cc2)C(=O)N(C)CC(=O)N[C@@H](CCc2ccc(C(F)(F)F)c(OC)c2)C(=O)N2C[C@H](OCC)C[C@H]2C(=O)OC2(CCC2)C(=O)N(C)[C@@H](C2CCCC2)C(=O)N(C)[C@H](C(=O)N(C)C)CC(=O)N1C [PP3385] | – | A (a compound having 10 or more and less than 20 is denoted as A) | B (a compound having 3 or more and less than 10 is denoted as B) | 8.1 | – | – | – | – | 0.22
CCO[C@@H]1C[C@H]2C(=O)NC3(CC(C)(C)C3)C(=O)N(C)[C@@H](C(CC)CC)C(=O)N(C)[C@H](C(=O)N(C)C)CC(=O)N(C)[C@@H](CC3CC3)C(=O)N[C@@H]([C@@H](C)CC)C(=O)N(C)CC(=O)N(C)[C@H]3C/C=C\CCN(C3=O)[C@@H](CC3CCC(F)(F)CC3)C(=O)N(C)CC(=O)N[C@@H](CCc3cc(F)c(C(F)(F)F)c(F)c3)C(=O)N2C1 [PP2485] | 0.78 | A (a compound having 10 or more and less than 20 is denoted as A) | A (a compound having 10 or more and less than 20 is denoted as A) | 55.5 | – | – | – | – | –
